# Reference: ChEMBL document CHEMBL3861949 (Medchemcomm, 2016)
# Legend:
# [1] = Cytotoxicity against human MRC5 cells; type: toxicity, cell-based
# Saccharomyces cerevisiae [2] = experiment: Ratio of IC50 for Saccharomyces cerevisiae wild type KRS1 to IC50 for Saccharomyces cerevisiae KRS1 Gln324Val mutant
# Saccharomyces cerevisiae [3] = experiment: Ratio of IC50 for Saccharomyces cerevisiae wild type KRS1 to IC50 for Saccharomyces cerevisiae KRS1 Gln324Val/Thr340Ser mutant
# [4] = Inhibition of Plasmodium falciparum Lysyl-tRNA ligase expressed in Escherichia coli Tuner (DE3) cells assessed as suppression of L-lysine-tRNA(Lys) formation in presence of AMP-Alexa633 tracer after 4 hrs by fluorescence polarization assay
# Saccharomyces cerevisiae [5] = experiment: Ratio of IC50 for Saccharomyces cerevisiae wild type KRS1 to IC50 for Saccharomyces cerevisiae KRS1 Thr340Ser mutant
# [6] = Selectivity ratio of IC50 for human Lysyl-tRNA ligase to IC50 for Plasmodium falciparum Lysyl-tRNA ligase
# Plasmodium berghei = experiment: Antimalarial activity against liver stage of Plasmodium berghei ANKA; type: functional
# [7] = Inhibition of bovine liver TrpRS assessed as suppression of L-[5-3H]tryptophanyl-tRNA formation after 10 mins by liquid scintillation counting method; parameters: species or system Bos taurus
# [8] = Inhibition of Escherichia coli TrpRS assessed as suppression of L-[5-3H]tryptophanyl-tRNA formation after 10 mins by liquid scintillation counting method
# Isoleucine--tRNA ligase [9] = molecular target: Isoleucine--tRNA ligase (Thermus thermophilus (strain HB8 / ATCC 27634 / DSM 579), UniProt P56690, L583F); experiment: Inhibition of recombinant Thermus thermophilus HB8 IleRS L583F mutant assessed as suppression of L-[14C]isoleucyl-tRNA(Ile) formation
# Isoleucine--tRNA ligase [10] = molecular target: Isoleucine--tRNA ligase (Thermus thermophilus (strain HB8 / ATCC 27634 / DSM 579), UniProt P56690, H581S/L583I); experiment: Inhibition of recombinant Thermus thermophilus HB8 IleRS H581S/L583I double mutant assessed as suppression of L-[14C]isoleucyl-tRNA(Ile) formation
# Isoleucine--tRNA ligase [11] = molecular target: Isoleucine--tRNA ligase (Thermus thermophilus (strain HB8 / ATCC 27634 / DSM 579), UniProt P56690, H581L/L583H); experiment: Inhibition of recombinant Thermus thermophilus HB8 IleRS H581L/L583H double mutant assessed as suppression of L-[14C]isoleucyl-tRNA(Ile) formation
# Isoleucine--tRNA ligase [12] = molecular target: Isoleucine--tRNA ligase (Thermus thermophilus (strain HB8 / ATCC 27634 / DSM 579), UniProt P56690, H581N/L583F); experiment: Inhibition of recombinant Thermus thermophilus HB8 IleRS H581N/L583F double mutant assessed as suppression of L-[14C]isoleucyl-tRNA(Ile) formation
# Isoleucine--tRNA ligase [13] = molecular target: T1, Isoleucine--tRNA ligase (Thermus thermophilus (strain HB8 / ATCC 27634 / DSM 579), UniProt P56690); experiment: Inhibition of recombinant Thermus thermophilus HB8 wild type IleRS assessed as suppression of L-[14C]isoleucyl-tRNA(Ile) formation
# T1 sequence (P56690 whole entry): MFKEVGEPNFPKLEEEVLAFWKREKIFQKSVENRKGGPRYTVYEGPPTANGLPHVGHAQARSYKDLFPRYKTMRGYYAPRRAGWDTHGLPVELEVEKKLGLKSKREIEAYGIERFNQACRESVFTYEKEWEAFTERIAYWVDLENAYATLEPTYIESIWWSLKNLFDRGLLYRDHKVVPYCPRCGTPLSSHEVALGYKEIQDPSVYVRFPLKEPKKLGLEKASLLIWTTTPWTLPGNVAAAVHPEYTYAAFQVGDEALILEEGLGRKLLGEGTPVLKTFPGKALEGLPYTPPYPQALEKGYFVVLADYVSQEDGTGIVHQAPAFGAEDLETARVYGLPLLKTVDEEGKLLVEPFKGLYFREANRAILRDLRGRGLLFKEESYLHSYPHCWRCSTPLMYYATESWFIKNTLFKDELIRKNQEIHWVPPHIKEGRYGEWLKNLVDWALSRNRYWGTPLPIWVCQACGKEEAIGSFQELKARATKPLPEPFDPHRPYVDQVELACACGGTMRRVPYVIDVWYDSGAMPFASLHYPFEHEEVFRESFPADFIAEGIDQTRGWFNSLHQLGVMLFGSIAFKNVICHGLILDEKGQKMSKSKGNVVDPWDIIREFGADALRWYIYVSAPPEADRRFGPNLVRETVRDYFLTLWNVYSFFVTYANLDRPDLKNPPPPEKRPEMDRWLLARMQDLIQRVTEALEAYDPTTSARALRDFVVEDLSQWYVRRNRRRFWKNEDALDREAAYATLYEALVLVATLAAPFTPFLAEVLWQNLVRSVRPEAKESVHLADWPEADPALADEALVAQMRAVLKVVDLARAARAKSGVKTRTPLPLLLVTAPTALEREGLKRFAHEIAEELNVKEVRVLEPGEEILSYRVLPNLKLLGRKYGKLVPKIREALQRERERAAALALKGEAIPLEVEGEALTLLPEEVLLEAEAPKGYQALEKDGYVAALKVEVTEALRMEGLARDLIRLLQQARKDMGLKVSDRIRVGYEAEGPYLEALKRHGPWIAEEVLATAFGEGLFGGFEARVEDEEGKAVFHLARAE
# Isoleucine--tRNA ligase (Thermus thermophilus (strain HB8 / ATCC 27634 / DSM 579), UniProt P56690, H581L/L583H), sequence (P56690 whole entry H581L/L583H): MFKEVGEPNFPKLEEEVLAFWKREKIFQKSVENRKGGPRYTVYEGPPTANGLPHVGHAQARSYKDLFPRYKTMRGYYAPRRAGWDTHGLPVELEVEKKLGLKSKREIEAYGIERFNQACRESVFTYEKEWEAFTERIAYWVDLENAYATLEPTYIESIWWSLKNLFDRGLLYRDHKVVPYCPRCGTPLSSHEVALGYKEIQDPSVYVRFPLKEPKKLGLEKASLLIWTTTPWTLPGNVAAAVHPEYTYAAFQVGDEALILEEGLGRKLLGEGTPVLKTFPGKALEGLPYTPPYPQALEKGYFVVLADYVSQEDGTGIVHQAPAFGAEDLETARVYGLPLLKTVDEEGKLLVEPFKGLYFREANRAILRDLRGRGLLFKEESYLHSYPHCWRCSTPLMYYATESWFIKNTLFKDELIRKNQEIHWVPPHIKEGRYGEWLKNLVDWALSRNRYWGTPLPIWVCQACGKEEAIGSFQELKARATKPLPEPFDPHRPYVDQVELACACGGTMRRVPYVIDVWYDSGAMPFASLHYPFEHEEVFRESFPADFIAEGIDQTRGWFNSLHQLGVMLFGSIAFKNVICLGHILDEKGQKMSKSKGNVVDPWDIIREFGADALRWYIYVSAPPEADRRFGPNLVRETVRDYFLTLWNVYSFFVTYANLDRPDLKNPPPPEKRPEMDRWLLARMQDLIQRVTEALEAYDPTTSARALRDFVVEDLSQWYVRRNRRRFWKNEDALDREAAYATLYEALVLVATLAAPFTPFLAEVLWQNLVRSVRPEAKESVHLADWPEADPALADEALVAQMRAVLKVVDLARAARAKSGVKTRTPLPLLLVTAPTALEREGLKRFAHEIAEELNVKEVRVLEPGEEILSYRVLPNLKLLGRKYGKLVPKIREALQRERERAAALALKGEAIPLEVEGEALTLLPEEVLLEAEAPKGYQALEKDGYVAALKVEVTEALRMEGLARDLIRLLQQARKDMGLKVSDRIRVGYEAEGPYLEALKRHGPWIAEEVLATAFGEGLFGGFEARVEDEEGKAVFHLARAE
# Isoleucine--tRNA ligase (Thermus thermophilus (strain HB8 / ATCC 27634 / DSM 579), UniProt P56690, L583F), sequence (P56690 whole entry L583F): as the sequence (P56690 whole entry H581L/L583H) above, with L581H, H583F counted along it
# Isoleucine--tRNA ligase (Thermus thermophilus (strain HB8 / ATCC 27634 / DSM 579), UniProt P56690, H581S/L583I), sequence (P56690 whole entry H581S/L583I): as the sequence (P56690 whole entry H581L/L583H) above, with L581S, H583I counted along it
# Isoleucine--tRNA ligase (Thermus thermophilus (strain HB8 / ATCC 27634 / DSM 579), UniProt P56690, H581N/L583F), sequence (P56690 whole entry H581N/L583F): as the sequence (P56690 whole entry H581L/L583H) above, with L581N, H583F counted along it
structure (smiles),measurement,setting,value
C[C@@H]1C[C@H](C)C[C@H](C)[C@@H](O)CC(=O)O[C@H]([C@@H]2CCC[C@H]2C(=O)OCc2cn(CSc3ccccc3)nn2)C/C=C/C=C(/C#N)[C@H](O)[C@@H](C)C1,Activity,[1],16800 ng/mL
C[C@H]1CCC[C@H](CC2Cc3cc(O)cc(O)c3C(=O)O2)O1 (stereo partly specified),Ratio IC50,Saccharomyces cerevisiae [2],5.7
same,Ratio IC50,Saccharomyces cerevisiae [3],38.7
same,IC50,[4],0.04 µM
same,Ratio IC50,Saccharomyces cerevisiae [5],10.4
same,Ratio IC50,[6],> 100
O=c1c2cc(Cl)c(Br)cc2ncn1C[C@@H](O)C[C@H]1NCCC[C@@H]1O,EC50,Plasmodium berghei,0.014 µM
C[C@@H]1C[C@H](C)C[C@H](C)[C@@H](O)CC(=O)O[C@H]([C@@H]2CCC[C@H]2C(=O)O)C/C=C/C=C(/C#N)[C@H](O)[C@@H](C)C1 [BORRELIDIN],Activity,[1],201 ng/mL
O=C(CC1NCCCC1O)Cn1cnc2cc(Br)c(Cl)cc2c1=O (stereo unspecified) [HALOFUGINONE],EC50,Plasmodium berghei,0.017 µM
CNC1=NC(=O)[C@H]([C@H](C)c2c[nH]c3ccccc23)O1 [INDOMYCIN],IC50,[7],4040 µM
same,IC50,[8],0.00925 µM
C/C(=C\C(=O)OCCCCCCCCC(=O)O)C[C@@H]1OC[C@H](C[C@@H]2O[C@H]2[C@@H](C)[C@H](C)O)[C@@H](O)[C@H]1O [MUPIROCIN],Ki,Isoleucine--tRNA ligase [9],0.06 µM
same,Ki,Isoleucine--tRNA ligase [10],15 µM
same,Ki,Isoleucine--tRNA ligase [11],2.31 µM
same,Ki,Isoleucine--tRNA ligase [12],2.73 µM
same,Ki,Isoleucine--tRNA ligase [13],0.25 µM
